Test results: US10982252B2, “Bacterial systems for analyzing ubiquitylated polypeptides” (Technology Innovation Momentum Fund (Israel) Limited …, priority 2016, dated 2021)

How the values were obtained:
[1] = biological target: T1, E1 (Triticum aestivum, UniProt P20973); assay: Selection experiments in solution growth media (96-well, TRIM with or without Pyr-41), Hrs dsUIM ubiquitination; assay type: cell-based; details: 100 μM Pyr-41, with or without TRIM, n=9; FIG. 3D
T1 construct: expressed in transfected cells; host or cells: E. coli
T1 sequence (P20973 1-1051): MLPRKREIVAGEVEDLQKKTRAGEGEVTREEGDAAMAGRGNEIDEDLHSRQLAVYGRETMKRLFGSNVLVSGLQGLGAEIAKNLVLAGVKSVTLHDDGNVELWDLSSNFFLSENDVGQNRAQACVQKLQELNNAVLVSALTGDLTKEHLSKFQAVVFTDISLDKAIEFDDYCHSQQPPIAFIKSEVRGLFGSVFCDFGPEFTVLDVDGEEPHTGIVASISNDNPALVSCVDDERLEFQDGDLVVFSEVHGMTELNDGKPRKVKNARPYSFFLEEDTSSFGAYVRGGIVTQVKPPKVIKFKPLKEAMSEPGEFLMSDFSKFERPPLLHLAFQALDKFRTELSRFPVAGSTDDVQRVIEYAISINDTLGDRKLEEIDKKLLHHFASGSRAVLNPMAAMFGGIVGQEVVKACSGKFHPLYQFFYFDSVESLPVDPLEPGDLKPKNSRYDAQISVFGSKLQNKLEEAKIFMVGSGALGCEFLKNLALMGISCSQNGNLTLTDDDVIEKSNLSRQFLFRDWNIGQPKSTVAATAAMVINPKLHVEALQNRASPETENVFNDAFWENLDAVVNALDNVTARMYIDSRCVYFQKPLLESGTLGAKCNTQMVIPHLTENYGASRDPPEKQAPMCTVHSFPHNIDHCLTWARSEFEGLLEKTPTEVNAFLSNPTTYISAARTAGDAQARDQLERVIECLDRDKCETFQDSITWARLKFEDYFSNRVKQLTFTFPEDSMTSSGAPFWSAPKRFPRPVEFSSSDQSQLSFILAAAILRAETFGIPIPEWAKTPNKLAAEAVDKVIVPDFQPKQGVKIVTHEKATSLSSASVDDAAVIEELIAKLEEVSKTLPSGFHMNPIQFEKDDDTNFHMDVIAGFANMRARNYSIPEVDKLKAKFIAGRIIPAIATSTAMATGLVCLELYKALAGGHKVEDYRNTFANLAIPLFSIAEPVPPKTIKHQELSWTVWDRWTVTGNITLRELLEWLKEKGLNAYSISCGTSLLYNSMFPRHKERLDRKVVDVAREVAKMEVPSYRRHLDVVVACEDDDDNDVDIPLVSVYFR
Procedure: Selection experiments in solution growth media: Overnight cultures in LB medium (supplemented with 30 μg/ml kanamycin and 25 μg/ml streptomycin) were harvested and re-suspended in Davis minimal medium. Diluted cells (OD600, 0.2) were grown at 30° C. in 96-well plates containing 0.2 ml Davis medium supplemented with 0, 1, 5, 7, 10 and 12 μg/ml TRIM and with or without 100 μM Pyr-41. Growth rates were monitored by measuring the optical density (OD595) using a microplate spectrophotometer. Doubling time was calculated for early logarithmic growth (OD595 between 0.02 and 0.2). All experiments were performed at least 9 times (n=9).
The selection system stabilizes the dynamic and weak UBD:Ub non-covalent interactions by forming a covalent bond between Ub and Ub-receptor (i.e. ubiquitination) in the bacteria. The present inventors assessed the ability of the system to sense low affinity UBD by tethering the double-sided UIM (dsUIM) of Hrs as substrate^27,28 (FIG. 3A). The structures of Hrs:STAM (also known as ESCRT-0 complex) and particularly its dsUIM:Ub complex, were determined and facilitated detailed molecular assessment^29,30. The E3-independent self-ubiquitination of most Ub-receptors and the promiscuous function of Ubc4/5 subfamily members aided in the analysis. […] Similarly, I44-patch mutant abolished bacterial growth.

[2] = system: Ub; assay: Surface plasmon resonance, immobilized Sc_ENTH and free mono-Ub; assay type: binding; details: mutant complexes; Ub concentrations too low for accurate Kd, high standard errors
Procedure: Surface plasmon resonance: Purified His6-MBP-ENTH or mutants were immobilized on an Ni^+2 chip at a density of ˜800U. Untagged Ub (analyte) was injected at a flow rate of […] in 150 mM NaCl, 10 mM HEPES pH 7.0 and 0.010% poly-sorbate 20 at 24° C.; 500 mM imidazole was used for surface regeneration. To avoid immobilization of aggregated analyte the purified Ub was chromatographed by gel filtration and briefly sonicated immediately before SPR experiments. Data were processed with BioEvaluation and fitting carried out as a single-site-binding model with OriginLab. Standard errors derived from at least three samples.
Finally, to biophysically corroborate the data and to quantify the affinity of the ENTH:Ub complex, Surface Plasmon Resonance (SPR) measurements were performed with immobilized Sc_ENTH and free mono-Ub (FIG. 5I). […] Together, the correlation between the SPR measurements, the genetic and biochemical data provides a rough estimation for the sensitivity of the selection system in monitoring Ub binding.

[3] = biological target: T2, Siah2 (Homo sapiens, UniProt O43255); assay: Ubiquitination-dependent E. coli growth assay, bacteria addicted to Siah2 self-ubiquitination; assay type: cell-based; details: only under the addictive conditions (selective media, TRIM); FIG. 2B right
T2 construct: expressed in transfected cells; host or cells: E. coli W3110
T2 sequence (O43255 1-324): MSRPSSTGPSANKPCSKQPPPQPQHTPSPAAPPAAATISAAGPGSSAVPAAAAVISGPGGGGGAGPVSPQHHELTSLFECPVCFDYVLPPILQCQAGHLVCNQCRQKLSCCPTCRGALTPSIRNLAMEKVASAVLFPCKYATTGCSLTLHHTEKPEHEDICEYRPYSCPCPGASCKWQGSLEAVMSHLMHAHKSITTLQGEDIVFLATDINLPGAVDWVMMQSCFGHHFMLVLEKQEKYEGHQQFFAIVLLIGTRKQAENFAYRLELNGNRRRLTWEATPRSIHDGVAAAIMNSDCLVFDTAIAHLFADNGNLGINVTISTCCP
Procedure: Ubiquitination-dependent E. coli growth assay: E. coliW3110 (from Ezra Yagil laboratory at TAU) were co-transformed with the pND-Ub and the pCD-Sub plasmids and plated on LB agar supplemented with 34 μg/ml kanamycin and 25 μg/ml streptomycin. 5 ml of liquid LB medium supplemented with the same antibiotic concentrations were inoculated with a single colony and left to grow overnight at 37° C. The culture was harvested and washed twice with 5 ml of minimal Davis medium. The optical density (OD600.) was measured and adjusted to 0.2. Two and a half microliters of the diluted cultures from each sample were spotted on agar Davis plates containing 0, 0.5, 5, 10, 20 or 50 μg/ml of TRIM. The plates were incubated for 2-3 days at 30° C. and photographed with a UV camera in identical conditions. Each spotting assay was repeated at least 6 times.
Most E3-ligases undergo self-ubiquitination^20. The developed selection system thus provides a straightforward tool for their identification and characterization as self-ubiquitination is predicted to confer antibiotic resistance. Yeast Rsp5 and human Siah2, representatives of the HECT and the RING ligases, respectively, were fused to cDHFR. Growth phenotypes were observed under non-permissive conditions, only when all the required ubiquitination components were co-expressed (FIGS. 2A-B). […]

[4] = biological target: Ub (Homo sapiens, UniProt P0CG47); details: reference 26; read-out: affinity of VHS:Ub complex; cited from earlier work

Molecule: CCOC(=O)c1ccc(N2NC(=O)/C(=C/c3ccc([N+](=O)[O-])o3)C2=O)cc1 [PYR41]
- effect on bacterial growth (relative growth rates at log phase) [1]: attenuates bacterial growth only in the non-permissive conditions

Molecule: Ub R42E, R72E: R42E, R72E double mutant of ubiquitin
- estimated affinity, fold lower than that of the wild-type [2]: 2.6 fold

Molecule: CC1=CC(=O)c2ccccc2C1=O [menadione]
- growth phenotype in the presence of menadione [3]: growth arrest phenotype

B1: Vps27: VHS domain of Vps27 in VHS:Ub complex (protein)
chain: IHSVDLSDEEKDSIYMFASLVEKMKSRPLNEILEDSKLQNLAQRVFASKARLNYALNDKAQKYNTLIEMNGKISEIMNIYDRLLEQQLQSINLSQQMEKKITGYTTVDISQWHRKEHFEAFQSVAQ
modifications: left off: small tags and cut ends
notes: VHS domain of Vps27 in VHS:Ub complex
- Kd [4]: 1.5 mM
